Data on 22 molecules can be found in patent US9096624B2 (OSI Pharmaceuticals, LLC, priority 2009, dated 2015).

Where “and” joins values, the source holds several entries; their conditions need not be identical. Identical values can stand only once.

Assay [1] has as its target T1, FAK (Homo sapiens, UniProt Q05397). Description: Cell-based capture ELISA for inhibition of FAK autophosphorylation [pY397] in U87MG cells. A general note: ELISA stands for enzyme-linked immunosorbent assay.
Assay [2] has as its target T1, FAK. Description: biochemical.
The target of assay [3] is T1, FAK. The assay is described as follows: Cell-based capture ELISA for inhibition of FAK autophosphorylation [pY397] in MiaPaCa2 cells. The note with it: MIA-PaCa2 cells, + 50% mouse plasma (Table 3); read-out: Mean FAK Cell Mechanistic IC50 + 50% mP MIA-PaCa2. How it is done: Cell-Based Assays for Inhibition of FAK Autophosphorylation: MiaPaCa2 and U87MG
ELISA kit from Invitrogen (KHO0441).
Reagents Provided in Biosource FAK [pY397]
The cells were then suspended in cell assay medium.

[4] abbreviates: Mean FAK Cell Mechanistic IC50 + 50% mP U87MG, + 50% mouse plasma.
The mark [5] stands for this setting: U87MG FAK Cell Mech IC50 +hP, + human plasma.
[6] abbreviates: U87MG FAK Cell Mech IC50 +mP, + mouse plasma.

T1 sequence (Q05397 whole entry): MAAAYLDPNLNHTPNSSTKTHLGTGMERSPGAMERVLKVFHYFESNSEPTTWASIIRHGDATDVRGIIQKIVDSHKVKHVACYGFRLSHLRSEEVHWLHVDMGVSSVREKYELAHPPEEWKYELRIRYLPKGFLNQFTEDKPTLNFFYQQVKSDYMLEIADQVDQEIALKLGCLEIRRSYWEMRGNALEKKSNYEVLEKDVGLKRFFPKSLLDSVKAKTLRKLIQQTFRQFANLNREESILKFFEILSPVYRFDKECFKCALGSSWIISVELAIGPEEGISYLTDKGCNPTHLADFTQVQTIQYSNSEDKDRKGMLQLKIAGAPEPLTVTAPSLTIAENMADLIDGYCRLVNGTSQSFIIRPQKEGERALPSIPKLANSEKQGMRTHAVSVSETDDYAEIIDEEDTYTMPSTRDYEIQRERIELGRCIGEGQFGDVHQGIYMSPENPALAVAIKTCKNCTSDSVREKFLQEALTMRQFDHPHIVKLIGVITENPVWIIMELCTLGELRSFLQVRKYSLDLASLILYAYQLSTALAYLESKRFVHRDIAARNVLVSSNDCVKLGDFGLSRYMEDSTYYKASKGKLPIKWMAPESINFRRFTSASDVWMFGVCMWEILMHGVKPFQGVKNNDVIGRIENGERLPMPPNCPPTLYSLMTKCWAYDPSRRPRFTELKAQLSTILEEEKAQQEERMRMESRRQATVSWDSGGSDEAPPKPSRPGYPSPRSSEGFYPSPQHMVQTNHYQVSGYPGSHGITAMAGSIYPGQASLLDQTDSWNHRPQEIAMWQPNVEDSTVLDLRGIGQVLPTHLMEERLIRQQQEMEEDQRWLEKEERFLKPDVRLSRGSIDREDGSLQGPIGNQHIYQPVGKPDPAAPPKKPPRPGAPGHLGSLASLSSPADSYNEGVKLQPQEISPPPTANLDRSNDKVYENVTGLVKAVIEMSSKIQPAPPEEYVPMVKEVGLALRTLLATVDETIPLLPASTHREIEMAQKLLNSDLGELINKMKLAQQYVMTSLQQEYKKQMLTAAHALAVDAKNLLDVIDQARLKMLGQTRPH

Take `CCOP(=O)(Cc1ccc(Nc2ncc(C(F)(F)F)c(Nc3ccc(C4CCC(O)(C(=O)O)CC4)c4c3C(=O)N(C)C4)n2)c(OC)c1)OCC` (single isomer, unassigned) [Example 278, 4-(7-{2-[4-(Diethoxy-phosphorylmethyl)-2-methoxy-phenylamino]-5-trifluoromethyl-pyrimidin-4-ylamino}-2-methyl-1-oxo-2,3-dihydro-1H-isoindol-4-yl)-1-hydroxy-cyclohexanecarboxylic acid]: the IC50 is 1000 to 10000 nM in assay [1] (setting [4]) and less than 1000 nM in assay [2].

`COc1cc(P(C)(C)=O)ccc1Nc1ncc(Cl)c(Nc2ccccc2C(=O)NC(C)C)n1` [Cpd A, reference compound]: the IC50 is more than 4000 nM in assay [1] (setting [5]); 3.69 µM and > 4 µM (3×) in assay [1] (setting [6]).

`COc1cc(P(C)(C)=O)ccc1Nc1ncc(Cl)c(Nc2cccc3c2C(=O)N(C)C3)n1` [Cpd B, reference compound]: the IC50 in assay [1] (setting [5]) is more than 4000 nM; in assay [1] (setting [6]), 257 nM and 540 nM.

On to `CCOP(=O)(Cc1ccc(Nc2ncc(C(F)(F)F)c(Nc3c(F)cccc3C(=O)NC)n2)c(OC)c1)OCC` [Example 154, Diethyl (4-{[4-{[2-fluoro-6-(methylcarbamoyl)phenyl]amino}-5-(trifluoromethyl)pyrimidin-2-yl]amino}-3-methoxybenzyl)phosphonate], for which the half-maximal inhibitory concentration (IC50) in assay [1] (setting [4]) and in assay [2] was less than 1000 nM throughout.

On to `CCOP(=O)(Cc1ccc(Nc2ncc(C(F)(F)F)c(Nc3cccc(F)c3C(=O)NC)n2)c(OC)c1)OCC` [Example 155, diethyl (4-{[4-{[3-fluoro-2-(methylcarbamoyl)phenyl]amino}-5-(trifluoromethyl)pyrimidin-2-yl]amino}-3-methoxybenzyl)phosphonate], for which the IC50 in assay [1] (setting [4]) and in assay [2] was less than 1000 nM throughout.

For the molecule `CCOP(=O)(Cc1ccc(Nc2ncc(C(F)(F)F)c(Nc3ccc([C@H]4CC[C@H](O)CC4)cc3C(=O)N(C)C)n2)c(OC)c1)OCC` [Example 195, diethyl (4-{[4-{[2-(dimethylcarbamoyl)-4-(trans-4-hydroxycyclohexyl)phenyl]amino}-5-(trifluoromethyl)pyrimidin-2-yl]amino}-3-methoxybenzyl)phosphonate], the IC50 in assay [1] (setting [4]) was 1000 to 10000 nM; in assay [2], less than 1000 nM.

For the molecule `CCOP(=O)(Cc1ccc(Nc2ncc(C(F)(F)F)c(Nc3ccc(N4CCN(C(C)=O)CC4)c4c3C(=O)N(C)C4)n2)c(OC)c1)OCC` [Example 223, Diethyl (4-{[4-{[7-(4-acetylpiperazin-1-yl)-2-methyl-3-oxo-2,3-dihydro-1H-isoindol-4-yl]amino}-5-(trifluoromethyl)pyrimidin-2-yl]amino}-3-methoxybenzyl)phosphonate], the IC50 in assay [3] and in assay [2] was less than 1000 nM each time.

`CCOP(=O)(Cc1ccc(Nc2ncc(C(F)(F)F)c(Nc3ccc(N4CC(O)C4)c4c3C(=O)N(C)C4)n2)c(OC)c1)OCC` [Example 229, Diethyl (4-{[4-{[7-(3-hydroxyazetidin-1-yl)-2-methyl-3-oxo-2,3-dihydro-1H-isoindol-4-yl]amino}-5-(trifluoromethyl)pyrimidin-2-yl]amino}-3-methoxybenzyl)phosphonate]: the IC50 in assay [3] and in assay [2] was less than 1000 nM each time.

With `CCOP(=O)(Cc1ccc(Nc2ncc(C(F)(F)F)c(Nc3ccc([C@H]4CC[C@H](O)CC4)nc3C(=O)NC)n2)c(OC)c1)OCC` [Example 232, Diethyl (4-{[4-{[6-(trans-4-hydroxycyclohexyl)-2-(methylcarbamoyl)pyridin-3-yl]amino}-5-(trifluoromethyl)pyrimidin-2-yl]amino}-3-methoxybenzyl)phosphonate], the IC50 in assay [3] and in assay [2] was less than 1000 nM in each case.

Turning to `CCOP(=O)(Cc1ccc(Nc2ncc(C(F)(F)F)c(Nc3ccc(C4CCC(N(C)C)CC4)c4c3C(=O)N(C)C4)n2)c(OC)c1)OCC` (stereo not shown) [Example 233, Diethyl (4-{[4-({7-[4-(dimethylamino)cyclohexyl]-2-methyl-3-oxo-2,3-dihydro-1H-isoindol-4-yl}amino)-5-(trifluoromethyl)pyrimidin-2-yl]amino}-3-methoxybenzyl)phosphonate], the IC50 in assay [3] and in assay [2] was less than 1000 nM in each case.

Turning to `CCOP(=O)(Cc1ccc(Nc2ncc(C(F)(F)F)c(Nc3ccc([C@H]4CC[C@H](N5CCN(C(C)=O)CC5)CC4)c4c3C(=O)N(C)C4)n2)c(OC)c1)OCC` [Example 238, diethyl (4-{[4-({7-[trans-4-(4-acetylpiperazin-1-yl)cyclohexyl]-2-methyl-3-oxo-2,3-dihydro-1H-isoindol-4-yl}amino)-5-(trifluoromethyl)pyrimidin-2-yl]amino}-3-methoxybenzyl)phosphonate], the IC50 in assay [3] and in assay [2] was less than 1000 nM in each case.

On to `CCOP(=O)(Cc1ccc(Nc2ncc(C(F)(F)F)c(Nc3ccc(C4CCC(N5CCCC5)CC4)c4c3C(=O)N(C)C4)n2)c(OC)c1)OCC` (stereo not shown) [Example 242], for which the 50% inhibitory concentration (IC50) in assay [3] and in assay [2] was less than 1000 nM in each case.

Consider `CCOP(=O)(Cc1ccc(Nc2ncc(C(F)(F)F)c(Nc3ccc([C@@H]4C[C@@H](O)[C@@H](O)C4)c4c3C(=O)N(C)C4)n2)c(OC)c1)OCC` [Example 243, Diethyl (4-{[4-({7-[-3,4-dihydroxycyclopentyl]-2-methyl-3-oxo-2,3-dihydro-1H-isoindol-4-yl}amino)-5-(trifluoromethyl)pyrimidin-2-yl]amino}-3-methoxybenzyl) phosphonate], for which the IC50 in assay [3] and in assay [2] was less than 1000 nM each time.

`CCOc1cc(CP(=O)(OCC)OCC)ccc1Nc1ncc(C(F)(F)F)c(Nc2ccc([C@H]3CC[C@@H](C(=O)OCC)CC3)c3c2C(=O)N(C)C3)n1` [Example 244, Ethyl cis-4-(7-{[2-({4-[(diethoxyphosphoryl)methyl]-2-ethoxyphenyl}amino)-5-(trifluoromethyl)pyrimidin-4-yl]amino}-2-methyl-1-oxo-2,3-dihydro-1H-isoindol-4-yl)cyclohexanecarboxylate]: the figures for the IC50 in assay [3] and in assay [2] were 1000 to 10000 nM and less than 1000 nM, respectively.

For `CCOc1cc(CP(=O)(OCC)OCC)ccc1Nc1ncc(C(F)(F)F)c(Nc2ccc([C@H]3CC[C@H](C(=O)OCC)CC3)c3c2C(=O)N(C)C3)n1` [Example 245, Ethyl trans-4-(7-{[2-({4-[(diethoxyphosphoryl)methyl]-2-ethoxyphenyl}amino)-5-(trifluoromethyl)pyrimidin-4-yl]amino}-2-methyl-1-oxo-2,3-dihydro-1H-isoindol-4-yl)cyclohexanecarboxylate], the 50% inhibitory concentration (IC50) is 1000 to 10000 nM in assay [3] and less than 1000 nM in assay [2].

In the case of `CCOP(=O)(Cc1ccc(Nc2ncc(C(F)(F)F)c(Nc3ccc(C4CCNCC4)c4c3C(=O)N(C)C4)n2)cc1)OCC` [Example 247, Diethyl (4-{[4-{[2-methyl-3-oxo-7-(piperidin-4-yl)-2,3-dihydro-1H-isoindol-4-yl]amino}-5-(trifluoromethyl)pyrimidin-2-yl]amino}benzyl)phosphonate], the IC50 in assay [3] and in assay [2] was less than 1000 nM in each case.

In the case of `CCOP(=O)(Cc1ccc(Nc2ncc(Cl)c(Nc3ccc([C@H]4CC[C@H](O)CC4)c4c3C(=O)N(C)C4)n2)c(OC)c1)OCC` [Example 250, Diethyl {4-[(5-chloro-4-{[7-(trans-4-hydroxycyclohexyl)-2-methyl-3-oxo-2,3-dihydro-1H-isoindol-4-yl]amino}pyrimidin-2-yl)amino]-3-methoxybenzyl}phosphonate], the IC50 in assay [3] and in assay [2] was less than 1000 nM throughout.

With `CCOP(=O)(Cc1ccc(Nc2ncc(C(F)(F)F)c(Nc3ccc(N4CCN(CC(=O)O)CC4)c4c3C(=O)N(C)C4)n2)cc1)OCC` [Example 251, [4-(7-{[2-({4-[(Diethoxyphosphoryl)methyl]phenyl}amino)-5-(trifluoromethyl)pyrimidin-4-yl]amino}-2-methyl-1-oxo-2,3-dihydro-1H-isoindol-4-yl)piperazin-1-yl]acetic acid], the concentration for half-maximal inhibition (IC50) in assay [3] and in assay [2] was less than 1000 nM in each case.

Turning to `CCOP(=O)(Cc1ccc(Nc2ncc(C(F)(F)F)c(Nc3ccc(C4CCN(C)CC4)c4c3C(=O)N(C)C4)n2)cc1)OCC` [Example 253, Diethyl (4-{[4-{[2-methyl-7-(1-methylpiperidin-4-yl)-3-oxo-2,3-dihydro-1H-isoindol-4-yl]amino}-5-(trifluoromethyl)pyrimidin-2-yl]amino}benzyl)phosphonate], the half-maximal inhibitory concentration (IC50) in assay [3] and in assay [2] was less than 1000 nM each time.

As to `CCOc1cc(CP(=O)(OCC)OCC)ccc1Nc1ncc(C(F)(F)F)c(Nc2ccc([C@H]3CC[C@@H](C(=O)O)CC3)c3c2C(=O)N(C)C3)n1` [Example 257, cis-4-(7-{[2-({4-[(Diethoxyphosphoryl)methyl]-2-ethoxyphenyl}amino)-5-(trifluoromethyl)pyrimidin-4-yl]amino}-2-methyl-1-oxo-2,3-dihydro-1H-isoindol-4-yl)cyclohexanecarboxylic acid], the half-maximal inhibitory concentration (IC50) in assay [3] and in assay [2] was less than 1000 nM throughout.

For the molecule `CCOc1cc(CP(=O)(OCC)OCC)ccc1Nc1ncc(C(F)(F)F)c(Nc2ccc([C@H]3CC[C@H](C(=O)O)CC3)c3c2C(=O)N(C)C3)n1` [Example 258, Trans-4-(7-{[2-({4-[(diethoxyphosphoryl)methyl]-2-ethoxyphenyl}amino)-5-(trifluoromethyl)pyrimidin-4-yl]amino}-2-methyl-1-oxo-2,3-dihydro-1H-isoindol-4-yl)cyclohexanecarboxylic acid], the half-inhibitory concentration (IC50) in assay [3] and in assay [2] was less than 1000 nM each time.

With `CCOP(=O)(Cc1ccc(Nc2ncc(C(F)(F)F)c(Nc3ccccc3C(=O)O)n2)c(OC)c1)OCC` [Example 290, 2-{[2-({4-[(Diethoxyphosphoryl)methyl]-2-methoxyphenyl}amino)-5-(trifluoromethyl)pyrimidin-4-yl]amino}benzoic acid], the IC50 in assay [1] (setting [4]) is 1000 to 10000 nM.

As usually defined, the IC50 is the concentration at which inhibition is half-maximal.
